Data: the METLIN SMRT retention time set (Domingo-Almenara et al. 2019)

Assay: gradient 5% acetonitrile 3 min, to 50% in 2 min, to 85% in 15 min, held 3 min, 100 µL/min
Conditions: column: Zorbax Extend-C18 2.1 x 50 mm; eluents: water / acetonitrile, 0.1% formic acid
Procedure, shortened: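 Mixtures of ~100 pure standards were chromatographed on a Zorbax Extend-C18 column (2.1 × 50 mm, 1.8 μm) at 100 μL/min using water and acetonitrile, each with 0.1% formic acid. Detection used a quadrupole time-of-flight mass spectrometer in positive and negative ionization mode, and data collection spanned 3 months. Retention time was obtained from adduct peaks picked computationally and each checked manually.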

| SMILES | RP-LC retention time |
| --- | --- |
| CN(C)c1ccc(Nc2nc(-c3ccc(O)cc3O)cs2)cc1 | 850 s |
| Cc1ccc(-c2csc(NC(=O)CN3CCN(Cc4ccc5c(c4)OCO5)CC3)n2)cc1 | 737 s |
| COc1ccc(C2CC(=O)c3cnc(Nc4nc(C)c5ccc(C)cc5n4)nc3C2)cc1 (centres undefined) | 593 s |
| CC(Cc1ccco1)NC(=O)c1ccc2ccnc(N3CCN(c4ccccc4)CC3)c2c1 (centres undefined) | 806 s |
| O=C(COc1ccccc1Br)Nc1nc(-c2ccccc2)cs1 | 1130 s |
| COCCN1C(=O)CCc2cc(NS(=O)(=O)c3cccc4nsnc34)ccc21 | 716 s |
| Cc1nc(C)c(C(=O)N2CC(F)(F)C[C@H]2COc2ccc3c(c2)CCC3)s1 | 1080 s |
| COCc1nncn1C1CCN(S(=O)(=O)c2ccccc2Cl)CC1 | 697 s |
| O=C(c1cc(-c2ccncc2)n[nH]1)N1CCC(C(=O)N2CCN(C(=O)c3ccco3)CC2)CC1 | 566 s |
| COc1cc(Cl)c(C)cc1NC(=O)CN1C(=O)NC2(CCCCC2)C1=O | 884 s |
| CCCn1c(=O)c2cc(C(=O)NCc3ccc(N4CCOCC4)cc3)nn2c2ccccc21 | 842 s |
| CN(Cc1ccccc1)c1ccc(-c2noc(CN3CCCC3)n2)cn1 | 675 s |
| O=c1c2ccccc2n(Cc2nc(-c3ccccc3)no2)c(=O)n1CC1CCCO1 (centres undefined) | 978 s |
| O=C(O)c1cncc(NS(=O)(=O)c2ccc3c(c2)OCCO3)c1 | 611 s |
| CCC(=O)N(C)CCc1noc(-c2ccc(C(=O)NCCOC)cc2)n1 | 644 s |
| Cn1cc(C=C2C(=O)Nc3cccnc32)c2ccccc21 | 750 s |
| Cc1cc(C)cc(NC(=O)CN2CCN(Cc3ccccc3)C(=O)C2=O)c1 | 782 s |
| COCCCNC(=O)c1ccc(-c2ccc(N3CCSCC3)nc2)cc1 | 646 s |
| O=C(NCc1ccccc1F)c1ccc2c(c1)CN(C1CCSCC1)CCO2 | 584 s |
| CC(C)c1ccc(NC(=O)C2CCCN(c3ncnc4c3oc3ccccc34)C2)cc1 (centres undefined) | 976 s |
| Cc1cc(C)cc(C(=O)N2CCC(n3c(-c4ccco4)nc4cccnc43)C2)c1 (centres undefined) | 825 s |
| Cc1ccc2nc(C3CN(C(=O)COc4ccc(Cl)cc4Cl)C3)[nH]c2c1 | 610 s |
| Cc1ccc(-c2cc3n(n2)CCCN(C(=O)c2n[nH]c4ccccc24)C3)cc1 | 850 s |

| SMILES | RP-LC retention time |
| --- | --- |
| COc1ccc(C2CC(=O)N(c3ccc(F)c(F)c3)C(=O)C2)cc1OC | 852 s |
| Cc1nc(NS(=O)(=O)c2ccccc2)sc1C(=O)NCc1c(F)cccc1F | 718 s |
| Cc1ccsc1CN1CCc2oc(C)c(C(=O)N3CCOCC3)c2C1 | 536 s |
| CN(C)C(=O)CN1CCN(c2cc(C(=O)O)c3cc(NC(=O)c4cccc(Cl)c4)ccc3n2)CC1 | 612 s |
| Cc1ccc(-c2cc3c4nn(CC(=O)N5CCCC5)c(=O)n4ccn3n2)cc1C | 842 s |
| CCn1nc(-c2ccc(OC)c(S(=O)(=O)N3CCC(C(N)=O)CC3)c2)c2c(c1=O)CCCC2 | 663 s |
| CC(=O)c1ccc(N2CCN(C(=O)C3Oc4ccccc4NC3=O)CC2)cc1 (centres undefined) | 723 s |
| Cc1nn(C(C)C(=O)NCCCN2CCCC2)c(=O)c2nn(-c3ccccc3)c(C)c12 (centres undefined) | 614 s |
| CN(C)C(=O)c1cc2sc(Cl)cc2n1C | 837 s |
| NCCSSCc1ccccc1CSSCCN | 567 s |
| O=C(Cn1cnc2nc(N3CCCC(C(=O)NC4CC4)C3)sc2c1=O)NCc1ccccc1 (centres undefined) | 646 s |
| CCn1cnc2cc(-c3noc(C(C)NS(=O)(=O)c4ccc(C)cc4)n3)ccc21 (centres undefined) | 683 s |
| COc1ccc(-c2coc3cc(OCC(=O)O)ccc3c2=O)cc1OC | 703 s |
| O=C(Cn1cncn1)N1CCC(c2nnc(C(F)(F)F)o2)CC1 | 588 s |
| Cc1cccc(-c2nnc(-c3cccc(S(=O)(=O)N4CCC(C)CC4)c3)o2)c1 | 1220 s |
| CN(C)c1ccc(C(CNS(C)(=O)=O)N2CCc3ccccc3C2)cc1 (centres undefined) | 573 s |
| O=C(Nc1ccc(F)cc1)C1CCCN(C(=O)c2ccc(F)c(F)c2)C1 (centres undefined) | 860 s |
| Cc1nn(CC(=O)N2CCCCCC2)c(=O)c2c(-n3cccc3)n(-c3ccc(Cl)cc3)nc12 | 1090 s |
| CCC(C)NS(=O)(=O)c1ccc(-c2n[nH]c(C)c2C)o1 (centres undefined) | 772 s |
| CN(C)c1ccc(CNC(=O)C2CCN(c3cnc(N4CCCC4)nc3)CC2)cc1 | 557 s |
| Cc1cc(C)cc(S(=O)(=O)N2CCC3(CC2)NCCN=C3NCc2ccc(F)cc2)c1 | 753 s |
| CCC1(O)CCOC2(CCN(C(=O)CC3CCCC3)CC2)C1 (centres undefined) | 748 s |
| O=C(Cn1c(=O)c2cccn2c2ccccc21)NCCCN1CCCCCC1 | 612 s |

| SMILES | RP-LC retention time |
| --- | --- |
| O=C(Cn1nc2c(SC3CCCCC3)nccn2c1=O)NC1CCCC1 | 939 s |
| CC1CCN(c2nc(-c3ccc(Br)cc3)nc3ccccc23)CC1 | 955 s |
| CN1C(=O)Cc2cc(NC(=O)CN3C(=O)c4ccccc4C3=O)ccc21 | 628 s |
| O=C(Cc1ccccc1Cl)Nc1cc(N2CCOCC2)ncn1 | 635 s |
| Cc1ccc(CNC(=O)N2CCC3(CC2)NC(=O)c2ccccc2O3)cc1 | 757 s |
| Cc1cccc2nnc(N3CCC(C(=O)N4CCOCC4)CC3)n12 | 568 s |
| O=c1[nH]c2ccc(S(=O)(=O)Nc3cccc(C(F)(F)F)c3)cc2[nH]1 | 664 s |
| COc1ccc(Cl)cc1NC(=O)C1CCN(S(=O)(=O)c2cc(-c3noc(C)n3)cs2)CC1 | 1050 s |
| Cc1ccc(NC(=O)c2c(O)c3cccnc3n(-c3ccc(F)cc3)c2=O)c(C)c1 | 1320 s |
| CCOC(=O)C1CCN(C(=O)c2ccc3c(c2)N(CC(=O)N2CCCC2)C(=O)CO3)CC1 | 678 s |
| O=C(NC1CCCC1)C1CCN(C(=O)c2ncn3c2COC(c2ccc(Cl)cc2)C3)CC1 (centres undefined) | 780 s |
| FC(F)(F)c1cccc(-c2ccc(CNCC3CCCO3)o2)c1 (centres undefined) | 703 s |
| COc1ccccc1NC(=O)C1CCN(S(=O)(=O)c2cc(C(=O)N(C)C)cs2)CC1 | 789 s |
| NC(=O)C1CCN(c2ncnc3c2oc2ccccc23)CC1 | 584 s |
| O=C(CCc1c(-c2ccc(Cl)cc2)nc2ccccn12)NC1CCCCCC1 | 712 s |
| Cn1c(=O)c2c3c(cnc2n(C)c1=O)C(=O)CCC3 | 704 s |
| CCN1CCN(CCNC(=O)C2CCCN(S(=O)(=O)N(C)c3ccc(F)cc3)C2)CC1 (centres undefined) | 551 s |
| COc1ccc(-c2cn3c(CC(=O)Nc4cc(OC)ccc4OC)csc3n2)cc1 | 780 s |
| COc1ccc(-c2cnc(NC(=O)[C@H]3CCCCN3S(=O)(=O)c3ccc(C)cc3)s2)cc1 | 1270 s |
| O=C(NCCc1csc(C2CCCN(C(=O)C3CC3)C2)n1)C1CC1 (centres undefined) | 662 s |
| CCC1CN2C=Nc3oc(C)c(C(=O)Nc4cccc(Cl)c4)c3C2=N1 (centres undefined) | 695 s |
| O=C1C(N2CCCN(S(=O)(=O)c3cccnc3)CC2)CCN1CC1CC1 (centres undefined) | 593 s |
| COc1ccc(C(=O)c2cnc3ccc(OC)cc3c2N2CCN(C)CC2)cc1 | 561 s |

| SMILES | RP-LC retention time |
| --- | --- |
| Cc1ccc(-n2nc(C)c3c(C)cc(OCC(=O)NCc4ccc5c(c4)OCO5)nc32)cc1 | 1060 s |
| CCC(=O)N1CCc2cc(N3CC(C(=O)NCc4cccc(Cl)c4)CC3=O)ccc21 (centres undefined) | 776 s |
| O=C(c1cn2nc(Cl)ccc2n1)N1CCN(c2ccc(Cl)cc2)CC1 | 858 s |
| CCn1ccc2sc(C)c(C(=O)NCc3ccc(Cl)cc3)c2c1=O | 891 s |
| O=C(Cn1c(-c2cccs2)cc2cc(Cl)ccc21)NCCCN1CCOCC1 | 726 s |
| Cc1ccc2nc(-c3ccc(NC(=O)c4cc5cccnc5n(C)c4=O)cc3)sc2c1 | 864 s |
| Cc1sc(NC(=O)CCC2CCCCC2)nc1-c1ccc2c(c1)NC(=O)C(C)O2 (centres undefined) | 679 s |
| COc1ccc(CC(=O)N2CCCC2c2cc(C)on2)cc1 (centres undefined) | 736 s |
| COc1ccc(-c2nnc(COc3cccc(NC(=O)c4nn(C)c5ccccc45)c3)o2)cc1 | 1040 s |
| COc1ccc(-c2c(C)noc2NC(C)=O)cc1S(=O)(=O)Nc1cc(OC)c(OC)c(OC)c1 | 687 s |
| CCc1cccc(NC(=O)Cc2nnc(-c3cnccn3)o2)c1 | 736 s |
| O=S(=O)(c1ccc(Cl)c(-c2nnc(-c3ccccc3)o2)c1)N1CCOCC1 | 946 s |
| CCc1nnc2nc(N3CCN(C(=O)c4cccs4)CC3)cc(C)n12 | 592 s |
| Cc1c(F)cccc1NC(=O)c1cc2n(n1)CCCC2 | 931 s |
| O=C(Cn1ccnc1-c1ccnc(N2CCCCC2)c1)NC1CCCCC1 | 624 s |
| CS(=O)(=O)c1ccc(Cc2nnc(NC(=O)C3CCCC3)o2)cc1 | 632 s |
| CC(C)Cn1c(CCNC(=O)c2cccc(F)c2)nc2cccnc21 | 709 s |
| CN(C)CC1CN(C(=O)COc2ccccc2)CC12CCOCC2 (centres undefined) | 599 s |
| Cc1ccc(S(=O)(=O)N2CCC(OCc3noc(C4CCCO4)n3)CC2)cc1F (centres undefined) | 936 s |
| COc1cc(OC)cc(C(=O)N2CCC3(CC2)NC(=O)c2ccccc2N3C)c1 | 734 s |
